Values quoted from earlier work in EP4092126A1, “A METHOD OF ENZYMATIC REDUCTION OF THE OXIDIZED NICOTINAMIDE ADENINE DINUCLEOTIDE AND CARBOXYLIC ACIDS” (priority 2021, dated 2022).
Like-named read-outs stand apart in the source and are kept apart here.

Tests used:
[1] = test system: tungsten aldehyde oxidoreductase (AOR) from A. aromaticum; conditions: 1 mM benzaldehyde, re-oxidized with NAD+, pH 8.0, 28°C, anaerobic conditions
[2] = target: [NiFe] dehydrogenase from Ralstonia eutropha (Cupriavidus necator, UniProt P22317+P22320)
[3] = target: T1, phosphine dehydrogenase (PTDH) (Stutzerimonas stutzeri, UniProt O69054); conditions: read-out: Km (NAD^+)
T1 sequence (O69054 1-336): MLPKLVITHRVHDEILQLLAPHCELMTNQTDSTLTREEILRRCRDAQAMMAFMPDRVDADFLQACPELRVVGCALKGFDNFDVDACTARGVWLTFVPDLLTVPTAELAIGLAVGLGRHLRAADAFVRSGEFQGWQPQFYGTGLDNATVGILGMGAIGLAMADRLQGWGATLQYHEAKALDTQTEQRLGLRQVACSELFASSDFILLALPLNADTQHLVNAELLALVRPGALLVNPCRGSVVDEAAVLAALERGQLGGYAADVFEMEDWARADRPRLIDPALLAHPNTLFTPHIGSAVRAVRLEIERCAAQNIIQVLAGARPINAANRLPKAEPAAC

AOR = target: T2, AOR (Aromatoleum aromaticum, UniProt Q5P142+Q5P143); conditions: 1 mM benzaldehyde, pH 8.0, 28°C, anaerobic; read-out: Km versus NAD^+
T2 sequence (Q5P143 1-616): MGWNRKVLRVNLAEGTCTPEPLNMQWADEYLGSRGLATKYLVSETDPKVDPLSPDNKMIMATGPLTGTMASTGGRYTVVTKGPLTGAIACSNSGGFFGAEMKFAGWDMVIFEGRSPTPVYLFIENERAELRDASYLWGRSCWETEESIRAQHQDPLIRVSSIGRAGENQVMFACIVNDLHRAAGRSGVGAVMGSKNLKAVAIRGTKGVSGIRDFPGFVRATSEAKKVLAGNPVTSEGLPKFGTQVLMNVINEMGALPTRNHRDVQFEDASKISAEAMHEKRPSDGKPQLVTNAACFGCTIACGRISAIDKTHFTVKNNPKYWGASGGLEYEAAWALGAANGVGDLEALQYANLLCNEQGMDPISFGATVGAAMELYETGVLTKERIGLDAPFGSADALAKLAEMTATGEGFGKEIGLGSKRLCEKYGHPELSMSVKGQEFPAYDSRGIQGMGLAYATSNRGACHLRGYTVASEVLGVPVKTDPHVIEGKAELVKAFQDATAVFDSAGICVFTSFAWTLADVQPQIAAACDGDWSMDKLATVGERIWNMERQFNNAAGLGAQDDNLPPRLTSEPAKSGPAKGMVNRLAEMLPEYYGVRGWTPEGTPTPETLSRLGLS
T2 sequence (Q5P142 1-424): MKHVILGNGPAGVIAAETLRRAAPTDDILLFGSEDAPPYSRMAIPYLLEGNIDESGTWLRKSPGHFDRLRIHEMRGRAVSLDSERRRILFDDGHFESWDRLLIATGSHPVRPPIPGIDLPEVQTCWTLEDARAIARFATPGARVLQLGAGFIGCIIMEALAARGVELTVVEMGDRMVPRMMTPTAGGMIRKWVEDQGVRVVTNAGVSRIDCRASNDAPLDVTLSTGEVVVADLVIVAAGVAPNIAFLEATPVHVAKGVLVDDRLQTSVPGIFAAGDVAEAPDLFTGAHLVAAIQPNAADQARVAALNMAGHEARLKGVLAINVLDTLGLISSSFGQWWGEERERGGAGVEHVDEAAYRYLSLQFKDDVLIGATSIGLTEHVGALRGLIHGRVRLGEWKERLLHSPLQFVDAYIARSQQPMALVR
T2 sequence (Q5P144 1-158 partner): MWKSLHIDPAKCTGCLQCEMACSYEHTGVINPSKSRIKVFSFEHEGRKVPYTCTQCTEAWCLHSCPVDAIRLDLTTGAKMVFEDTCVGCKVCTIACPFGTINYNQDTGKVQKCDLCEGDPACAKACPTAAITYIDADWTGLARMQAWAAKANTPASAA

[4] = target: AOR enzyme from Thermococcus strain ES-1; conditions: reducing acetic acid to acetaldehyde with reduced methyl viologen
[5] = test system: [NiFe] dehydrogenase from Ralstonia eutropha; conditions: same Km expressed as per cent H2

Chain of [NiFe] dehydrogenase from Ralstonia eutropha (Cupriavidus necator, UniProt P22317+P22320) (P22318 whole entry): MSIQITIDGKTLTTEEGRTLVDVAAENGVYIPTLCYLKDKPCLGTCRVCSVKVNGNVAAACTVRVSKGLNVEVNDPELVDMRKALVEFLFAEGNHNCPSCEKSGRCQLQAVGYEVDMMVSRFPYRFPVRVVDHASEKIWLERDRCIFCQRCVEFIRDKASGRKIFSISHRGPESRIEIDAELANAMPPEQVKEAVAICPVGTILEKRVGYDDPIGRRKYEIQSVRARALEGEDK
Chain of [NiFe] dehydrogenase from Ralstonia eutropha (Cupriavidus necator, UniProt P22317+P22320) (P22320 1-464): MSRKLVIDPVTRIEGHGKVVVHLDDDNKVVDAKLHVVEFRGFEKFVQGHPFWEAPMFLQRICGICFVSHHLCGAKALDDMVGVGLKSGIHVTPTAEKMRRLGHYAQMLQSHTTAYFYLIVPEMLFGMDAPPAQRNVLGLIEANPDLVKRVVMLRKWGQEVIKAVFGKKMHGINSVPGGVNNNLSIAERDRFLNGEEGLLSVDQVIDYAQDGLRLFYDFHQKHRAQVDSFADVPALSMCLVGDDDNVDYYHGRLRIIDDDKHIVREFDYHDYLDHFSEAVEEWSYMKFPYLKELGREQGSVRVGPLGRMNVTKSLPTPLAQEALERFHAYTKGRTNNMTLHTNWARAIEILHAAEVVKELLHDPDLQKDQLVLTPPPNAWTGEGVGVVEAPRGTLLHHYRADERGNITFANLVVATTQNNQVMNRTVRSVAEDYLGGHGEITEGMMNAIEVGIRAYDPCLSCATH
Chain of [NiFe] dehydrogenase from Ralstonia eutropha (Cupriavidus necator, UniProt P22317+P22320) (P22319 whole entry, further chain): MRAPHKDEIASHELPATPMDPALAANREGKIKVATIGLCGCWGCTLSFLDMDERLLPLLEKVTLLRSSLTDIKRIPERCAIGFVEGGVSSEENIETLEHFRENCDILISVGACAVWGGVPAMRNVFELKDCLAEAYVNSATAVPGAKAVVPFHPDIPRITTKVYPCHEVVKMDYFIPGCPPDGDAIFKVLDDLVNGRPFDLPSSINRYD
Chain of [NiFe] dehydrogenase from Ralstonia eutropha (Cupriavidus necator, UniProt P22317+P22320) (P22317 whole entry): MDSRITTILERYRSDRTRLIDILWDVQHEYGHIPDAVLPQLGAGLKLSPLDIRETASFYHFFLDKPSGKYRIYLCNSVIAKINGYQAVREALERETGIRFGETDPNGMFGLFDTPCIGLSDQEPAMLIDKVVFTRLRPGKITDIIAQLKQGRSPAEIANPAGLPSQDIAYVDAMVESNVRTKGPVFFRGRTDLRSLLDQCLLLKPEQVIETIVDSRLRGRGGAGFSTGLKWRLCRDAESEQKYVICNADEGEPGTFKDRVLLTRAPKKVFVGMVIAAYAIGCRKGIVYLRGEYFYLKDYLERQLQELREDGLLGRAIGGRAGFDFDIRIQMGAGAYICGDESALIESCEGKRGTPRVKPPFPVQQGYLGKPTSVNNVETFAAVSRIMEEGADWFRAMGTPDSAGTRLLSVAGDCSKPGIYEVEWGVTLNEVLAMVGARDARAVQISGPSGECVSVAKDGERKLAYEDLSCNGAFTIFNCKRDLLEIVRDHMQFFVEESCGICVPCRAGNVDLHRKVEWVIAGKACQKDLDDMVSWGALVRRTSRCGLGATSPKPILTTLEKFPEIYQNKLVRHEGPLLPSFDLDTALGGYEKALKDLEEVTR

NC(=O)c1ccc[n+]([C@@H]2O[C@H](COP(=O)([O-])OP(=O)(O)OC[C@H]3O[C@@H](n4cnc5c(N)ncnc54)[C@H](O)[C@@H]3O)[C@@H](O)[C@H]2O)c1 [NAD+, nicotinamide adenine dinucleotide]
maximum observed reaction rate, Vmax [1]: 12.5 mM/min/mg

NC(=O)c1ccc[n+]([C@@H]2O[C@H](COP(=O)([O-])OP(=O)(O)OC[C@H]3O[C@@H](n4cnc5c(N)ncnc54)[C@H](O)[C@@H]3O)[C@@H](O)[C@H]2O)c1 [NAD^+, nicotinamide adenine dinucleotide]
Km ([2]; read-out: Km (NAD^+)): 560 µM
Km [3]: 53 µM
Km (AOR): 63 µM

CC(=O)O [acetic acid]
kinetic rate constant (kcat) [4]: 1.6 turnovers of the catalyzed reaction per second

[HH] [hydrogen]
Km ([2]; 1.4-5% H2, read-out: Km (hydrogen)): 11 to 37 µM
Ki ([2]; hyperbaric conditions, read-out: Ki (inhibition by H2)): 1460 µM

hydrogen [H2]
Km (hydrogen), as H2 content [5]: 1.4-5 % H2
